This passage reports photoluminescence quantum yield results from the Deep4Chem optical property database.

A short description of this data set: photoluminescence quantum yield (fraction); solvent given as SMILES.

With `CNc1ncc2nc(C(=O)OC)n(Cc3ccccc3)c2n1`, the photoluminescence quantum yield worked out at 0.65 (in C1COCCO1), 0.66 (in CC#N), 0.61 (in CO) and 0.65 (in ClCCl).

The compound `Fc1ccc2sc3nc(-c4ccccc4)sc3c2c1` had a photoluminescence quantum yield (in CS(C)=O) of 0.91.

The compound `F[B-]1(F)n2c(cc3sc4ccccc4c32)C(c2ccc(I)cc2)=C2C=c3sc4ccccc4c3=[N+]21` returned a photoluminescence quantum yield (in ClC(Cl)Cl) of 0.05.

In turn, `CC(C)(C)c1cc(-c2ccc3c(-c4cc(C(C)(C)C)cc(C(C)(C)C)c4)cc4c5cc(-c6cc(C(C)(C)C)cc(C(C)(C)C)c6)ccc5c(-c5cc(C(C)(C)C)cc(C(C)(C)C)c5)cc4c3c2)cc(C(C)(C)C)c1` came in with a photoluminescence quantum yield (in ClCCl) of 0.609.

In turn, `c1ccc2cc(-c3cc(-c4nccs4)nc(-c4nccs4)c3)ccc2c1` showed a photoluminescence quantum yield (in CC#N) of 0.36, a photoluminescence quantum yield (in CCCCCC) of 0.289, a photoluminescence quantum yield (in CO) of 0.328 and a photoluminescence quantum yield (in ClC(Cl)Cl) of 0.166.

For `F[B-]1(F)n2cccc2C(c2c3ccccc3cc3ccccc23)=C2C=CC=[N+]21`, the photoluminescence quantum yield came to 0.135 (in CCCCCC), 0.008 (in Cc1ccccc1) and 0.002 (in ClCCl).

The compound `CC(C)c1cccc(C(C)C)c1N1C(=O)c2cccc3c(Oc4ccc(C(C)(C)c5ccccc5)cc4)ccc(c23)C1=O` displayed a photoluminescence quantum yield (in ClCCl) of 0.11.

In turn, `CC1(C)c2cc(/C=C/c3nc(/C=C/c4ccc5c(c4)C(C)(C)c4cc(N(c6ccccc6)c6ccc7ccccc7c6)ccc4-5)nc(/C=C/c4ccc5c(c4)C(C)(C)c4cc(N(c6ccccc6)c6ccc7ccccc7c6)ccc4-5)n3)ccc2-c2ccc(N(c3ccccc3)c3ccc4ccccc4c3)cc21` had a photoluminescence quantum yield (in Cc1ccccc1) of 0.25.

In the case of `Cc1oc(-c2ccccc2)nc1C(=O)O`, the photoluminescence quantum yield is, setting by setting: (in C1CCCCC1) 0.16; (in CC#N) 0.4; (in CCO) 0.52; (in CCOC(C)=O) 0.5; (in O) 0.51.

`Oc1ccccc1/C=N/C1CCCCC1/N=C/c1ccccc1O` (configuration not stated) yielded a photoluminescence quantum yield (in CC#N) of 0.069.

`F[B-]1(F)n2c(c(-c3ccccc3)c(-c3ccccc3)c2-c2ccccc2)C(c2ccccc2)=C2C(c3ccccc3)=C(c3ccccc3)C(c3ccccc3)=[N+]21` gave a photoluminescence quantum yield (in C1CCOC1) of 0.2.

For the setting “in CO”, `C#CCOc1ccc(/C=C/C2=[N+]3C(=C(c4ccc(N(C)C)cc4)c4c(C)cc(C)n4[B-]3(F)F)C(C)=C2)cc1` came in with a photoluminescence quantum yield of 0.66.

Turning to `Cc1cc(-c2ccc(C(C)(C)C)cc2)c2nsnc2c1-c1ccc(C(C)(C)C)cc1`, the photoluminescence quantum yield (in ClCCl) came to 0.14.

As to `c1ccc2c(-n3c4ccccc4c4ccccc43)cccc2c1`, the photoluminescence quantum yield reads like this: (in C1CCCCC1) 0.54; (in CCOC(C)=O) 0.51; (in CO) 0.36.

`N#Cc1cc(-n2c3ccccc3c3ccccc32)c(-n2c3ccccc3c3ccccc32)cc1-c1cc(-n2c3ccccc3c3ccccc32)c(-n2c3ccccc3c3ccccc32)cc1C#N` came in with a photoluminescence quantum yield (in Cc1ccccc1) of 0.46.

`Cc1ccc2[nH]c(-c3ccc(-c4ccc(-c5ccc(-c6nc7cc(C)ccc7[nH]6)cc5)c(F)c4)cc3)nc2c1`: where the note is “in CN(C)C=O”, the photoluminescence quantum yield was 0.98.

Where the note is “in ClCCl”, `Cc1cccc(-c2c3ccccc3c(-c3cccc(C)n3)c3ccccc23)n1` showed a photoluminescence quantum yield of 0.77.

Take `Cc1cc(C)c(B(c2cc3c4c(c(B(c5c(C)cc(C)cc5C)c5c(C)cc(C)cc5C)cc5c4c2CCC5)CCC3)c2c(C)cc(C)cc2C)c(C)c1`: the photoluminescence quantum yield (in CCCCCC) is 0.9.

Compound `COc1ccc(Oc2ccc3c4c(cccc24)C(=O)N(c2c(C(C)C)cccc2C(C)C)C3=O)cc1` registered a photoluminescence quantum yield (in ClCCl) of 0.002.

On to `COc1ccc(N(c2ccc(OC)cc2)c2ccc(-c3ccc(-c4ccc(-c5cccs5)c5nsnc45)s3)cc2)cc1`, for which the photoluminescence quantum yield (in ClC(Cl)Cl) is 0.28.

`Cc1cccc2nc(-c3ccc(-c4cc(=O)cc(-c5ccccc5)o4)cc3)c(NC3CCCCC3)n12` registered a photoluminescence quantum yield (in ClCCl) of 0.032.

Consider `CN(C)c1ccc(-c2c(/C=C3/C=Cc4ccccc4N3Cc3ccccc3)c(=O)c2=O)cc1`, for which the photoluminescence quantum yield was found to be 0.0146 (in C1CCCCC1), 0.0141 (in Cc1ccccc1) and 0.001 (in ClCCl).

With `CCOC(=O)CSc1nc(-c2ccccc2)c(C)c(C#N)c1C#N`, the photoluminescence quantum yield runs as follows: (in C1COCCO1) 0.031; (in CC#N) 0.036; (in CCO) 0.037; (in CCOC(C)=O) 0.037; (in ClC(Cl)Cl) 0.033; (in c1ccccc1) 0.038.

As to `CC(C)(C)c1ccc(-c2cc(-c3ccc(-c4cc(-c5ccc(C(C)(C)C)cc5)c(C#N)s4)s3)sc2C#N)cc1`, the photoluminescence quantum yield (in ClCCl) was 0.17.

Regarding `FC(F)(F)c1cc2n(n1)[B-](c1ccccc1)(c1ccccc1)[n+]1ccc3ccccc3c1-2`, the photoluminescence quantum yield by setting is: (in C1CCCCC1) 0.999; (in Cc1ccccc1) 0.712; (in ClCCl) 0.778.

Where the note is “in Cc1ccccc1”, `N#Cc1ccc(N2c3ccccc3C(c3ccccc3)(c3ccccc3)c3ccccc32)cc1` yielded a photoluminescence quantum yield of 0.22.

`COCCOCCOCCOCC(COCCOCCOCCOC)Oc1cc(/C=C/c2ccc(/C=C(\C#N)C(=O)c3ccccc3)cc2)c(OC(COCCOCCOCCOC)COCCOCCOCCOC)cc1/C=C/c1ccc(/C=C(\C#N)C(=O)c2ccccc2)cc1` gave a photoluminescence quantum yield (in ClCCl) of 0.23.

For `c1ccc(C2c3ccccc3-c3ccccc32)cc1`, for the setting “in CCO”, the photoluminescence quantum yield stood at 0.19.

For the compound `CCn1c2ccc(/C=C/c3ccc4c(c3)c3cc(-c5nc6ccccc6s5)ccc3n4CC)cc2c2cc(-c3nc4ccccc4s3)ccc21`, the photoluminescence quantum yield by setting is: (in C1CCOC1) 0.65; (in CC#N) 0.26; (in CCOC(C)=O) 0.58; (in CN(C)C=O) 0.32; (in ClCCl) 0.5.

Compound `CC(C)(C)NC(=O)c1ccc(-c2cc3ccccc3o2)c2ccc3c4ccccc4c4ccccc4c3c12` yielded a photoluminescence quantum yield (in ClCCl) of 0.44.

For `Cc1c(OCC(=O)O)cc2c3c([nH]c2c1C)C(=O)CCC3`, the photoluminescence quantum yield reads like this: (in C1COCCO1) 0.009; (in CC#N) 0.027; (in CCO) 0.019; (in CS(C)=O) 0.089; (in O) 0.013; (in c1ccccc1) 0.008.

As for `CCOC(=O)C1=C(C(=O)OCC)C2(c3ccccc3-c3ccccc32)[C@@H](c2ccc([N+](=O)[O-])cc2)C=C2c3cc(OC)c(OC)cc3CCN21`, the photoluminescence quantum yield (in ClCCl) amounted to 0.00075.

For the setting “in C1CCCCC1”, `CB1C=Cc2ccc3ccccc3c2N1c1ccccc1` came in with a photoluminescence quantum yield of 0.04.

On to `CC(C)CCCN1c2ccccc2CCc2ccccc21`, for which the photoluminescence quantum yield runs as follows: (in CC#N) 0.029; (in CO) 0.021.

Turning to `O=[N+]([O-])c1ccc(/C=C/c2nc3c4ccccc4c4ccccc4c3o2)cc1`, under “in CC#N”, the photoluminescence quantum yield was 0.2.

The compound `C(=C1c2ccccc2-c2ccccc21)c1ccc(C=C2c3ccccc3-c3ccccc32)cc1` gave a photoluminescence quantum yield (in C1CCOC1) of 0.0003.

As for `C(S/C=C/c1ccc(/C=C/SC=C2CCCCCC2)cc1)=C1CCCCCC1`, the photoluminescence quantum yield (in ClCCl) is 0.109.

`O=C1/C(=C2\Sc3ccccc3C2=O)Sc2ccccc21`: the photoluminescence quantum yield runs as follows: (in C1COCCO1) 0.54; (in CN(C)C=O) 0.353; (in CO) 0.035; (in CS(C)=O) 0.013; (in c1ccccc1) 0.72.

For `CCCC1(CCC)c2cc(-c3ccc(C(C)(C)CC)cc3)ccc2-c2ccc(-c3ccc(C(C)(C)CC)cc3)cc21`, the photoluminescence quantum yield (in C1CCCCC1) was 0.92.

On to `CN(C)c1ccc2nc(-c3ccc(C(=O)OC(C)(C)C)cc3)sc2c1`, for which the photoluminescence quantum yield runs as follows: (in C1CCCCC1) 0.84; (in CC#N) 0.81; (in CC(C)O) 0.84; (in CO) 0.72; (in CS(C)=O) 0.91; (in ClC(Cl)Cl) 0.87. The same compound showed a photoluminescence quantum yield (in c1ccccc1) of 0.85.

The compound `Nc1ccc2c(c1)C(=O)c1ccccc1-2` returned a photoluminescence quantum yield (in C1CCCCC1) of 0.0086 and a photoluminescence quantum yield (in c1ccccc1) of 0.00099.

For `O=c1c2ccccc2sc2ccc(-n3c4ccccc4c4ccccc43)cc12`, the photoluminescence quantum yield (in O=P(c1ccccc1)(c1ccccc1)c1ccccc1Oc1ccccc1P(=O)(c1ccccc1)c1ccccc1) was found to be 0.512.

Consider `O=C(O)COc1ccc2[nH]c3c(c2c1)CCCC3=O`, for which the photoluminescence quantum yield is, setting by setting: (in C1CCOC1) 0.01; (in C1COCCO1) 0.007; (in CC#N) 0.024; (in CCCCCCCCCCCCO) 0.012; (in CCCCCCCCCCO) 0.009; (in CCCCCCCCO) 0.017. Further, the photoluminescence quantum yield (in CCCCCCO) was determined as 0.016; the photoluminescence quantum yield (in CCCCO) was 0.012; the photoluminescence quantum yield (in CCO) was determined as 0.017; the photoluminescence quantum yield (in CCOC(C)=O) was 0.018; the photoluminescence quantum yield (in CN(C)C=O) is 0.07; the photoluminescence quantum yield (in CO) was found to be 0.051. The photoluminescence quantum yield (in CS(C)=O) was 0.087, the photoluminescence quantum yield (in Cc1ccccc1) is 0.026, the photoluminescence quantum yield (in O) was 0.011 and the photoluminescence quantum yield (in c1ccccc1) amounted to 0.006.

Take `CCCCC1(c2ccccc2)Nc2c(-c3ccc(N(C)c4ccccc4)cc3)ccc(-c3ccc(N(C)c4ccccc4)cc3)c2N=C1c1ccccc1` (configuration not stated): the photoluminescence quantum yield (in ClC(Cl)Cl) was 0.01.

`CN(C)c1ccc(C(=O)Nc2ccc([N+](=O)[O-])cc2)cc1` came in with a photoluminescence quantum yield (in C1CCCCC1) of 0.0001, a photoluminescence quantum yield (in C1CCOC1) of 0.0003, a photoluminescence quantum yield (in CC#N) of 0.0002 and a photoluminescence quantum yield (in CCOCC) of 0.0006.
